Test results from PMC11530593, “Structural mechanism of human HCN1 hyperpolarization-activated channel inhibition by ivabradine” (The Journal of Biological Chemistry, 2024).
Residue numbers refer to the chain shown, from its start.

How the values were obtained:
WT hHCN1 = biological target: T1, WT hHCN1 (Homo sapiens, UniProt O60741); assay: Whole-cell patch-clamp, Ih inhibition in transfected HeLa cells; assay type: cell-based
T1 construct: Full-length WT or mutant human HCN1 were cloned into the pcDNA3.1 vector; expressed in transfected cells; host or cells: HeLa cells, pcDNA3.1 vector, transient lipofection
T1 sequence (O60741 1-890): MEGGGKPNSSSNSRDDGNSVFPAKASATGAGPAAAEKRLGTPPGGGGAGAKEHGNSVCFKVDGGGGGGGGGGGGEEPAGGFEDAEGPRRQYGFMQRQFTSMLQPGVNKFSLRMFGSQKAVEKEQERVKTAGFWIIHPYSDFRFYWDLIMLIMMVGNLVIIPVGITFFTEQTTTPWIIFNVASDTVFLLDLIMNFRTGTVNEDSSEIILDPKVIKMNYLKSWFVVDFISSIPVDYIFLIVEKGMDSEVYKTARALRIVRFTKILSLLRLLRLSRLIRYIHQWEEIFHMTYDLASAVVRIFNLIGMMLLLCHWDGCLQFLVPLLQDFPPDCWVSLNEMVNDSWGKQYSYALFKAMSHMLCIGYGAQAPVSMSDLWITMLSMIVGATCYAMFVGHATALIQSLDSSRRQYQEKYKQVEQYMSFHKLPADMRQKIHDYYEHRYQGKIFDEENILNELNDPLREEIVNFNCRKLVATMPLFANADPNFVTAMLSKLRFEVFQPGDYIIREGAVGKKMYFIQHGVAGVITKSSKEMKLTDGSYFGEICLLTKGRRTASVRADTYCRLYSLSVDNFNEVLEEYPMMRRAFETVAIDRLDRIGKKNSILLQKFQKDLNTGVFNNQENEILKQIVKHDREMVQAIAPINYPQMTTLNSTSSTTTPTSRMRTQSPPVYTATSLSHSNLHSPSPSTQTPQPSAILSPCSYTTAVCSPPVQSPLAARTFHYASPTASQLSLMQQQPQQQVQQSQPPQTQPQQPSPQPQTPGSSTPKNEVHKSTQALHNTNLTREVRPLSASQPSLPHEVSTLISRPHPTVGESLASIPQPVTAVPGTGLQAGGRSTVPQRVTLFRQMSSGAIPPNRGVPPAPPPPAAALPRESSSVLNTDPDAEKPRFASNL
Method: The electrophysiological characteristics of WT hHCN1 were recorded using whole-cell patch-clamp. […] Activation of the HCN1 channel occurred in response to membrane hyperpolarization.
(§1) Full-length WT or mutant human HCN1 were cloned into the pcDNA3.1 vector for electrophysiological experiments. HeLa cells (from Thermo Fisher Scientific) cultured in Dulbecco's modified Eagle's medium (from Solarbio Life Science) + 10% fetal bovine serum (from ExCell Bio) at 37 °C were transiently transfected using lipofection, and whole-cell patch-clamp recordings were obtained using the Axon 200B amplifier (Molecular Devices) and clampex software (https://www.moleculardevices.com/products/axon-patch-clamp-system/acquisition-and-analysis-software/pclamp-software-suite), 36 to 48 h posttransfection. The extracellular solution contained 110 mM NaCl, 0.5 mM MgCl2, 1.8 mM CaCl2, 5 mM Hepes, 30 mM KCl, and pH was adjusted to 7.4 with NaOH, while the pipette solution contained 130 mM KCl, 10 mM NaCl, 0.5 mM MgCl2, 1 mM EGTA, 5 mM Hepes, and pH was adjusted to 7.4 with KOH. The recordings were performed at room temperature, voltage-clamp mode, and filtered at 1 kHz. The sampling frequency was 10 kHz, and the series resistance was limited to 5 MΩ. To elicit channel currents, step pulses of 3 s duration ranging from −180 mV to −30 mV were applied, followed by a step to −180 mV lasting 1.25 s. The tail currents evoked by the second step were used to determine the voltage-dependent activation curves and calculate the midpoint of activation potential (V1/2). The half maximal inhibitory concentration (IC50) of drugs was determined by recording currents at a pulse of −140 mV and analyzing current amplitudes at varying drug concentrations. The IC50 value was calculated using the Hill equation.

absence seizures = system: absence seizures; set-up: method as in PMID 34018186; conditions: coadministration with P-glycoprotein inhibitor elacridar; cited from earlier work
HCN1 mutant Y289A = biological target: T2, HCN1 mutant Y289A (Homo sapiens, UniProt O60741, Y289A); assay: Whole-cell patch-clamp, Ih inhibition, HCN1 mutant; assay type: cell-based; conditions: electrophysiological recordings, read-out: IC50 (Fig. 2F)
T2 construct: Full-length WT or mutant human HCN1 were cloned into the pcDNA3.1 vector; expressed in transfected cells; host or cells: HeLa cells, pcDNA3.1 vector, transient lipofection
T2 sequence (O60741 1-890 Y289A): T1 sequence (O60741 1-890) with Y289A
Method: To elucidate the contribution of these residues to the inhibitory effect of ivabradine, we introduced mutations in ivabradine-interacting residues, converting them into alanines (Fig. 2F).
as §1

- effect on Ih current (WT hHCN1; 20 μM): significantly reduced
- IC50 (WT hHCN1; membrane potential -140 mV, read-out: half-maximal inhibitory concentration (IC50) of Ih inhibition): 2.94 ± 0.61 µM
- IC50 (HCN1 mutant Y289A): 11.8 µM
Compound: COc1cc2c(cc1OC)CC(=O)N(CCCN(C)C[C@H]1Cc3cc(OC)c(OC)cc31)CC2 [ivabradine]
- effect on absence seizures (absence seizures): significantly and persistently reducing absence seizures
